Laboratory results: PubChem BioAssay (NCI)
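A five-concentration, 48-hour dose response in 96-well plates underlies each endpoint, interpolated linearly between surrounding concentrations. GI50 is the concentration that inhibits growth by half. TGI: concentration producing complete growth inhibition.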

Columns and labels:
Assay in all cases: growth of human tumour cells (NCI), 48 h
A498 renal = system: A498 renal
BT-549 breast = system: BT-549 breast
K-562 leukemia = system: K-562 leukemia
LOX IMVI melanoma = system: LOX IMVI melanoma
OVCAR-3 ovarian = system: OVCAR-3 ovarian
OVCAR-5 ovarian = system: OVCAR-5 ovarian
SK-MEL-5 melanoma = system: SK-MEL-5 melanoma
SNB-19 CNS = system: SNB-19 CNS
SW-620 colon = system: SW-620 colon
UACC-257 melanoma = system: UACC-257 melanoma

SMILES	GI50 (A498 renal) [µM]	TGI (A498 renal) [µM]	GI50 (BT-549 breast) [µM]	TGI (BT-549 breast) [µM]	GI50 (K-562 leukemia) [µM]	TGI (K-562 leukemia) [µM]	GI50 (LOX IMVI melanoma) [µM]	TGI (LOX IMVI melanoma) [µM]	GI50 (OVCAR-3 ovarian) [µM]	TGI (OVCAR-3 ovarian) [µM]	GI50 (OVCAR-5 ovarian) [µM]	TGI (OVCAR-5 ovarian) [µM]	GI50 (SK-MEL-5 melanoma) [µM]	TGI (SK-MEL-5 melanoma) [µM]	GI50 (SNB-19 CNS) [µM]	TGI (SNB-19 CNS) [µM]	GI50 (SW-620 colon) [µM]	TGI (SW-620 colon) [µM]	GI50 (UACC-257 melanoma) [µM]	TGI (UACC-257 melanoma) [µM]
COc1cc(CCNC(=O)OC(C)(C)C)c2c(c1OC)SSSSS2	1.6	3.09	2.54	5.06	2.45	21.3	2.79	6.75	2.65	5.51	3.14	9.23	1.84	3.38	2.7	5.63	2.8	7.69	2.93	5.48
C=CCOC(=O)Nc1cccn([C@H](CC(C)C)C(=O)NCCC(C)C)c1=O	17.2	> 100	> 100	> 100	96	> 100			54.5	> 100	> 100	> 100	74.7	> 100	> 100	> 100	> 100	> 100	66.5	> 100
C=CC(=O)Nc1cccc(Oc2nc(Nc3ccc(N4CCN(C)CC4)cc3OC)ncc2Cl)c1	1.11	3.49	1.99	4.58			1.58	2.99	1.7	4.44	2.29	13	1.89	3.92	3.63	16.7	1.47	2.96	1.62	3.17
CN(C)C=Nc1c(I)cc(I)c(CCC(=O)O)c1I	81.6	> 100	> 100	> 100	59.3	> 100	> 100	> 100	> 100	> 100	> 100	> 100	> 100	> 100	> 100	> 100	> 100	> 100	> 100	> 100
NC(N)=N/N=C/c1c(-c2cccnc2)nc2sc(Cl)cn12	20.6	37.6	16.3	32.4	19.1	43.3	12.4	24.8	15.3	30.1	12.7	25.3	15.2	28.6			6.13	20.7	20.4	40.5
CN(C)CCS(=O)(=O)Nc1cc(-c2ccc3ncc(C#N)c(Nc4ccc(F)c(Cl)c4)c3c2)cnc1Cl	0.144	0.344	0.107	0.485	0.229	> 50.5	0.117	0.284	0.13	0.412	0.303	4.9	0.118	0.244	0.248	2.94	0.263	1.43	0.273	3.51
CCCN(CCC)c1ccc(C=O)c(C)c1	1.27	3.28	26.9	> 100	68.7	> 100	65	> 100	35.4	> 100	58.5	> 100	21.2	> 61.9	60.9	> 100	45.9	> 100	19.2	> 96.3
O=C1c2c(Cl)c(Cl)c(Cl)c(Cl)c2C(=O)C2(Cl)CC=CCC12Cl (centres undefined)	12.7	25.3	1.85	3.38	1.09	3.59	1.21	2.56	2.02	3.48	2.51	5.74	1.77	3.79	1.64	3.01	1.49	3.08	1.53	2.95
Cc1ccc(OCCOCCOCCOCCOCCOc2ccc(C)n(O)c2=S)c(=S)n1O	0.149	3.88	0.103	> 64.5	0.0383	> 100	0.054	21.8	0.0377	18.7	0.0634	> 100	0.0497	2.89	0.118	> 100	0.0544	> 100	0.0425	> 66.4
